# Experimental data published in article PMC8584011, “Immunomodulatory Lectin-like Peptides for Fish Erythrocytes-Targeting as Potential Antiviral Drug Delivery Platforms” (International Journal of Molecular Sciences, 2021).
# Columns and labels:
# rainbow trout RBCs [1] = test: Antiviral gene expression in RBCs by RT-qPCR; format: cell-based, rainbow trout (Oncorhynchus mykiss); settings: 50 µM peptide, 6 h post-treatment at 14 °C, normalized to ef1α, relative to untreated RBCs
# Method: Figure 3 Antiviral immunomodulation of the peptides in rainbow trout RBCs. Antiviral gene (ifit5, mx1-3, nkef, and vig1) expression quantified by RT-qPCR in RBCs at 6 h post-treatment (hpt) with 50 µM of each peptide. Gene expression was normalized against ef1α and relativized to control cells (RBCs untreated) (red line). Data represent the mean ± standard deviation (SD), n = 4. Mann–Whitney test was performed (* p < 0.05).
# To evaluate the possible antiviral immunomodulatory effects of the peptides, ficoll-purified RBCs (10^6 cells/well) were incubated with 50 µM of 4341, 4342, 4343 Rhd-labeled peptides for 6 h at 14 °C. After that, RBCs were washed, and samples were stored in buffer for RNA extraction and RT-qPCR analysis (Figure 5).
# The E.Z.N.A.® Total RNA Kit (Omega Bio-Tek Inc., Norcross, GA, USA) was used for RNA isolation according to the manufacturer’s instructions. Subsequent DNAse treatment was done using TURBO™ DNase (Ambion, Thermo Fisher Scientific, Waltham, MA USA) to eliminate possible residual genomic DNA. RNA was quantified with a NanoDrop Spectrophotometer (Nanodrop Technologies, Wilmington, DE, USA). Then, cDNA synthesis from RNA was performed using M-MLV reverse transcriptase (Invitrogen, Thermo Fisher Scientific) as previously described.
# To evaluate the gene expression of RBCs treated with 50 µM of the three Rhd-labeled peptides, RT-qPCR was carried out using the QUANTSTUDIO 3 System (Applied Biosystems, Thermo Fisher Scientific Inc.). Gene expression was analyzed by the 2^–ΔΔCt method. The ef1α gene was used as endogenous control.
# rainbow trout RBCs [2] = test: In vivo binding of peptides to RBCs after i.v. injection, flow cytometry (iMFI); set-up: species or system rainbow trout (Oncorhynchus mykiss); settings: i.v. injection of 100 µM peptide in 50 µL, peripheral blood at 3 hpi, mean ± SD n = 3, ranking of peptides
# Method: Figure 4 Peptide binding to rainbow trout RBCs in vivo, by means of flow cytometry. (a) Integrated median fluorescence intensity (iMFI) (% positive cells × MFI) of RBCs from blood of rainbow trout injected intravenously with the three selected peptides, 3 hpi with 100 µM of each peptide, analyzed by flow cytometry. Data represent the mean ± standard deviation (SD), n = 3. Kruskal–Wallis test with Dunn’s multiple comparison test was performed (p < 0.05). C means control RBCs. (b) Representative images of RBCs from blood of rainbow trout injected intravenously with the three selected peptides, 3 hpi with 100 µM of each peptide. The images were taken with the IN Cell Analyzer 6000 Cell Imaging system at 40× magnification. Peptides are labeled with Rhd (red). […]
# Juvenile rainbow trout (7–10 g) were anesthetized with tricaine methanesulfonate, (Sigma-Aldrich, Madrid, Spain) (40 mg/L) and injected intravenously (i.v) with 100 µM of 4341, 4342, 4343 Rhd-labeled peptides in 50 µL of RMPI 2% FBS using insulin syringes. […] Then, blood samples were evaluated by means of flow cytometry and fluorescent microscopy as described below (Figure 6).
# RBCs treated in vitro with the Rhd-labeled peptides and blood samples from individuals of rainbow trout injected with the three Rhd-labeled peptides were analyzed by flow cytometry using a FACS Canto II flow cytometer (BD Biosciences, Madrid, Spain). […]
# rainbow trout RBCs [3] = test: In vitro binding of Rhd-labeled peptides to RBCs, flow cytometry (iMFI); format: cell-based, rainbow trout (Oncorhynchus mykiss); settings: 100 µM Rhd-labeled peptide, 90 min at 14 °C, 10^5 cells/well, mean ± SD n = 3, ranking of peptides
# Method: In order to evaluate the binding of the peptides for RBCs, we carried out a dose-response assay using a concentration range from 25 to 100 µM. The binding of the Rhodamine (Rhd)-labeled peptides was evaluated by means of flow cytometry and calculated as the integrated median fluorescence intensity (iMFI), which is computed by multiplying the relative frequency (% positive) of cells with the median fluorescence intensity (MFI) of that population. […] Besides, hemagglutination was not observed at the concentrations of peptides used (Supplementary Figure S1). Cell toxicity was not observed neither in vitro nor in vivo at the maximum concentration of peptides used (Supplementary Figure S2).
# Figure 1 Peptide binding to rainbow trout RBCs in vitro, evaluated by means of flow cytometry. (a) Integrated median fluorescence intensity (iMFI) (% positive cells × MFI) of rainbow trout RBCs treated with different peptide concentrations, 90 min after incubation, analyzed by flow cytometry. Data represent the mean ± standard deviation (SD), n = 3. […]
# Ficoll-purified RBCs (10^5 cells/well) were treated with 25, 50, and 100 µM of 4341, 4342, 4343 Rhd-labeled peptides, and incubated for 90 min at 14 °C. Then, RBCs were washed with 200 µL of RPMI 2% FBS and analyzed by flow cytometry, fluorescent microscopy, and confocal microscopy as described below (Figure 5). […]
# rainbow trout RBCs [4] = test: Confocal microscopy of peptide-RBC binding / presence inside the cell; format: cell-based, rainbow trout (Oncorhynchus mykiss); settings: 90 min incubation with Rhd-labeled peptides, Hoechst and CellMask Green staining
# Method: Figure 2 Volume 3D reconstruction of the visualization of the peptides binding to rainbow trout RBCs. Rhd-labeled peptides are represented in red, nuclei were stained with Hoescht and are represented in blue, and cell membrane was stained using CellMask Green and is represented in beige. The images were taken at 63× magnification. Confocal images were processed using the ZEN 3.2 (Blue edition). Volume rendering was performed with IMARIS v9.3. Upper images represent plan view and lower images represent perspective view.
# Confocal microscopy was performed to evaluate peptide-RBCs binding in vitro. After 90 min of incubation with Rhd-labeled peptides, RBCs were washed, and nuclei were stained with Hoechst (1 μg/mL) (Sigma-Aldrich) and membrane was stained with CellMask Green (5 μg/mL) (Thermo Fischer Scientific). Images were taken with a Zeiss LSM900 with Airyscan 2 and analyzed with ZEN 3.2 (Blue edition) software (Zeiss, Oberkochen, Germany). Volume rendering was performed using IMARIS Software v9.3 (Bitplane, Zurich, Switzerland).
# human RBCs = settings: cited from earlier work
# Source text: (§1) Among the identified peptides in the literature, we selected three peptides based on their reported affinity to bind nucleated RBCs or mammalian RBCs. […] This peptide will be named in this article as 4341. Another selected peptide is a small peptide with lectin-like behavior, called odorranalectin (hereafter referred ...
# rabbit RBCs = settings: cited from earlier work
# Source text: as §1
# [5] = cited from earlier work
# Source text: In addition, our selected peptides were mainly found inside RBCs, instead of at the surface of the RBCs, as observed by confocal microscopy. […] In this contex ...
substance,measurement,setting,value
"Rhd-YASPKCFRYPNGVLACT [compound 4342, odorranalectin, Rhd-labeled small peptide with lectin-like behavior, called odorranalectin]",mx1-3 gene expression,rainbow trout RBCs [1]; n = 4,slight and not statistically significant upregulation
same,ifit5 gene expression,"rainbow trout RBCs [1]; n = 4, Mann–Whitney p < 0.05",statistically significantly upregulated
same,nkef gene expression,"rainbow trout RBCs [1]; n = 4, not statistically significant",upregulated
same,Binding to RBCs in vivo (iMFI = % positive cells × MFI),rainbow trout RBCs [2],highest iMFI
same,Binding to RBCs (iMFI = % positive cells × MFI),rainbow trout RBCs [3],highest binding
same,Presence of peptide inside the cell,rainbow trout RBCs [4],higher
same,Binding to human RBCs,human RBCs,bind
same,Binding to rabbit RBCs,rabbit RBCs,bind
same,Stability in circulation,[5],high stability in circulation
